# Experimental data: PubChem BioAssay (NCI)
# Where “and” joins values, the source holds several entries; their conditions need not be identical. Equal values may be shown once.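 Grown in 96-well plates, cells were treated for 48 hours with each compound at five concentrations. Insufficient inhibition: endpoint recorded as highest concentration tested. At the GI50, growth is halved. TGI: concentration producing complete growth inhibition.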
# How the values were obtained:
# Test in all cases: NCI anticancer screen, dose series, 48 h
# NCI-H522 lung = tested on: NCI-H522 lung
# MOLT-4 leukemia = tested on: MOLT-4 leukemia
# HCC-2998 colon = tested on: HCC-2998 colon
# K-562 leukemia = tested on: K-562 leukemia
# NCI-H460 lung = tested on: NCI-H460 lung
# EKVX NSCLC = tested on: EKVX NSCLC
# SF-295 CNS = tested on: SF-295 CNS
# MDA-MB-435 = tested on: MDA-MB-435
# KM12 colon = tested on: KM12 colon
# SR leukemia = tested on: SR leukemia
SMILES,GI50 (NCI-H522 lung),TGI (NCI-H522 lung),GI50 (MOLT-4 leukemia) [µM],TGI (MOLT-4 leukemia),GI50 (HCC-2998 colon) [µM],TGI (HCC-2998 colon),GI50 (K-562 leukemia) [µM],TGI (K-562 leukemia),GI50 (NCI-H460 lung),TGI (NCI-H460 lung),GI50 (EKVX NSCLC),TGI (EKVX NSCLC),GI50 (SF-295 CNS) [µM],TGI (SF-295 CNS),GI50 (MDA-MB-435),TGI (MDA-MB-435),GI50 (KM12 colon) [µM],TGI (KM12 colon),TGI (SR leukemia) [µM]
Cc1ccc(-c2c(C#N)[n+](=O)c3cc(F)c(F)cc3n2[O-])cc1,3.43 µM,76.9 µM,0.851,2.71 µM,10.3,23.5 µM,1.64,4.29 µM,12.2 µM,30.3 µM,21.2 µM,38.9 µM,2.01,5.27 µM,2.27 µM,5.95 µM,9.9,28.3 µM,
Cc1cc(C)nc(NS(=O)(=O)c2ccc(Nc3c4ccccc4nc4c(C(=O)Nc5ccc(S(=O)(=O)Nc6cc(C)on6)cc5)ccc(Cl)c34)cc2)n1,,51.4 µM,,49.1 µM,,32.6 µM,,> 100 µM,,61.3 µM,,62.5 µM,,44.8 µM,,,,37.1 µM,53.8
O=C1C=C2C=CC3CC2(O1)C1CCCCN31 (centres undefined),10.1 µM and 11.1 µM and 32.8 µM,28.1 µM and 32.4 µM and > 100 µM,,72.6 µM and 56.1 µM and > 100 µM,,40.9 µM and 42.4 µM and 86.4 µM,,> 100 µM and 41.8 µM,22.1 µM and 15.1 µM and 31.7 µM,96.3 µM and 67.1 µM and > 100 µM,14.1 µM and 11.6 µM and 38.6 µM,57.4 µM and 35.5 µM and > 100 µM,,> 100 µM and 76.1 µM,10.1 µM and 8.06 µM and 22 µM,41.6 µM and 39.3 µM and 66.3 µM,,70.7 µM and 28.5 µM and 57.6 µM,
COC1=CC(=O)C(Br)=CC1=O,,23.9 µM,,10.4 µM,,> 100 µM,,9.1 µM,,> 100 µM,,44.8 µM,,,,,,,
C#CCN(N=O)C(=O)NCCCCC(NC(=O)OCc1ccccc1)C(=O)OCc1ccccc1 (centres undefined),,30 µM,,50.6 µM,,> 100 µM,,56.9 µM,,> 100 µM,,> 100 µM,,> 100 µM,,,,> 100 µM,
COc1cc2c(c(O)c1C)C(=O)CC(c1ccccc1)O2 (centres undefined),,> 100 µM,,> 100 µM,,> 100 µM,,> 100 µM,,> 10 µM,,> 100 µM,,> 10 µM,,,,> 100 µM,
CCC[CH2][Sn]([CH2]CCC)([CH2]CCC)[O]C(=O)C(OC(C)=O)c1ccccc1 (centres undefined),0.144 µM,0.287 µM,0.0539,0.42 µM,0.0999,0.216 µM,0.109,0.349 µM,0.138 µM,0.28 µM,0.0528 µM,0.21 µM,0.163,0.301 µM,,,0.109,0.23 µM,
CCN(CCCl)CCCCCNc1c2ccccc2nc2ccc(OC)cc12,,2.03 µM,,0.279 µM,,2.94 µM,,1.06 µM,,1.51 µM,,18.1 µM,,9.68 µM,,,,1.81 µM,
Cn1cnc([N+](=O)[O-])c1Sc1nnnn1C,,20.5 µM,,33.7 µM,,51.2 µM,,42.3 µM,,> 100 µM,,40.8 µM,,> 100 µM,,,,> 100 µM,28.2
CCOP(=O)(OCC)/C(C#N)=C\c1ccsc1,,> 100 µM,,> 100 µM,,> 100 µM,,,,> 100 µM,,> 100 µM,,> 100 µM,,,,> 100 µM,
Cc1ccc(NC(=O)C(=O)C(C(=O)c2ccc3ccccc3c2)C2OC(=O)c3ccccc32)c(C)c1 (centres undefined),,31.3 µM,,23.7 µM,,21.1 µM,,> 100 µM,,25.5 µM,,52 µM,,,,,,45.5 µM,
O=C1NC(=O)C(=Cc2c3ccccc3cc3ccccc23)C(=O)N1,,> 100 µM,,> 100 µM,,,,> 100 µM,,> 100 µM,,,,,,,,,
O=C1C=CC(=O)C2C1Cc1ccccc1C2c1ccccc1 (centres undefined),,35.2 µM,,93.2 µM,,60 µM,,> 100 µM,,81.4 µM,,72.9 µM,,> 100 µM,,,,> 100 µM,59.1
O=c1nc(NC(c2ccccc2)(c2ccccc2)c2ccccc2)ccn1CCCl,,41.4 µM,,42.3 µM,,28 µM,,63.3 µM,,36.4 µM,,61 µM,,42.9 µM,,,,31.2 µM,49.5
Cc1cc(Br)cc(C)c1NC(=O)C(=O)C(C(=O)c1ccncc1)C1OC(=O)c2ccccc21 (centres undefined),,> 100 µM,,> 100 µM,,> 100 µM,,> 100 µM,,> 100 µM,,> 100 µM,,,,,,> 100 µM,> 100
Cc1cc2c(c3nocc13)C(=O)c1ccccc1C2=O,,> 100 µM,,> 100 µM,,> 100 µM,,> 100 µM,,> 100 µM,,> 100 µM,,> 100 µM,,,,> 100 µM,
NCCOCn1cc(Cc2cccc(OCc3ccccc3)c2)c(=O)[nH]c1=O,,,,> 100 µM,,> 100 µM,,> 100 µM,,> 100 µM,,> 100 µM,,> 100 µM,,,,> 100 µM,
O=C(Nc1ccc2ncnc(Nc3ccc(Oc4cccc(F)c4)c(Cl)c3)c2c1)c1ccc(CN2CCOCC2)cc1,0.654 µM,4.01 µM,1.8,4.98 µM,3.14,18.6 µM,2.47,11.7 µM,2.39 µM,6.39 µM,1.86 µM,38.2 µM,2.66,10.3 µM,2.18 µM,5.39 µM,2.57,7.66 µM,
O=C1OC(c2ccccc2)(c2ccccc2)c2ccc3ccc(F)cc3c21,,> 100 µM,,> 100 µM,,> 100 µM,,> 100 µM,,> 100 µM,,> 100 µM,,> 100 µM,,,,> 100 µM,> 100
CCNc1cc2oc(=O)cc(C(F)(F)F)c2cc1C,,> 100 µM,,> 100 µM,,> 100 µM,,> 100 µM,,> 100 µM,,> 100 µM,,> 100 µM,,> 100 µM,,> 100 µM,
Cc1c(N)nc([C@H](CC(N)=O)NC[C@H](N)C(N)=O)nc1C(=O)N[C@H](C(=O)N[C@H](C)[C@@H](O)CC(=O)N[C@H](C(=O)NC(O[C@@H]1O[C@@H](C)[C@@H](N)[C@@H](O)[C@H]1O)C(O)c1nc(-c2nc(C(=O)NCCCCN)cs2)cs1)[C@@H](C)O)[C@@H](O[C@@H]1O[C@@H](CO)[C@@H](O)[C@H](O)[C@@H]1O[C@H]1O[C@H](CO)[C@@H](O)[C@H](OC(N)=O)[C@@H]1O)c1c[nH]cn1 (some centres undefined),,> 50 µM,,> 50 µM,,> 50 µM,,> 50 µM,,> 50 µM,,> 50 µM,,> 50 µM,,> 50 µM,,> 50 µM,
